Laboratory results reported in ChEMBL document CHEMBL1201862, “PubChem BioAssay data set” (2004).
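Grown in 96-well plates, cells were treated for 48 hours with each compound at five concentrations. Insufficient inhibition: endpoint recorded as highest concentration tested. Here, GI50 denotes the concentration required for 50% inhibition of growth.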 Active and inactive are the calls of the source. Rule as the data show it: active = GI50 up to about 1.1 µM and inactive = higher.

Key:
Test in all cases: NCI anticancer screen, dose series, 48 h
A498 = tested on: A498
ACHN = tested on: ACHN
EKVX = tested on: EKVX
HL-60 = tested on: HL-60
HOP-92 = tested on: HOP-92
K562 = tested on: K562
KM12 = tested on: KM12
Malme-3M = tested on: Malme-3M
NCI-H226 = tested on: NCI-H226
OVCAR-4 = tested on: OVCAR-4
OVCAR-8 = tested on: OVCAR-8
RPMI-8226 = tested on: RPMI-8226
SF-539 = tested on: SF-539
SK-MEL-2 = tested on: SK-MEL-2
SK-MEL-5 = tested on: SK-MEL-5
SN12C = tested on: SN12C
SNB-19 = tested on: SNB-19
TK-10 = tested on: TK-10
UACC-257 = tested on: UACC-257
HCC 2998 = tested on: HCC 2998

Measured: GI50

CN(C)CCNCCN
inactive: A498 > 100 µM | ACHN > 100 µM | EKVX > 100 µM | HL-60 > 100 µM | HOP-92 > 100 µM | K562 > 100 µM | KM12 > 100 µM | Malme-3M > 100 µM | NCI-H226 > 100 µM | OVCAR-4 > 100 µM | OVCAR-8 > 100 µM | RPMI-8226 > 100 µM | SF-539 > 100 µM | SK-MEL-2 > 100 µM | SK-MEL-5 > 100 µM | SN12C > 100 µM | SNB-19 > 100 µM | TK-10 > 100 µM | UACC-257 > 100 µM

CCCNC(=O)C1C(=O)C(=O)N(CCC)C1=O (configuration not stated)
inactive: A498 > 100 µM | ACHN > 100 µM | EKVX > 100 µM | HCC 2998 > 100 µM | HOP-92 > 100 µM | K562 > 100 µM | KM12 > 100 µM | Malme-3M > 100 µM | OVCAR-4 > 100 µM | OVCAR-8 > 100 µM | RPMI-8226 > 100 µM | SF-539 > 100 µM | SK-MEL-2 > 100 µM | SK-MEL-5 > 100 µM | SN12C > 100 µM | SNB-19 > 100 µM | TK-10 > 100 µM | UACC-257 > 100 µM

COC(=O)NC12CC3CC(CC(F)(C3)C1)C2
inactive: A498 > 100 µM | ACHN > 100 µM | EKVX > 100 µM | HCC 2998 > 100 µM | HL-60 > 100 µM | HOP-92 > 100 µM | K562 > 100 µM | KM12 > 100 µM | Malme-3M > 100 µM | OVCAR-8 > 100 µM | RPMI-8226 > 100 µM | SF-539 > 100 µM | SK-MEL-2 > 100 µM | SNB-19 > 100 µM | TK-10 > 100 µM | UACC-257 > 100 µM

CC(=O)OC12CC[N+]3(C)CCCCC3C1=Nc1ccccc12 (configuration not stated)
inactive: A498 80.2 µM | ACHN > 100 µM | EKVX 17.4 µM | HL-60 > 100 µM | HOP-92 > 100 µM | K562 > 100 µM | KM12 82.8 µM | Malme-3M > 100 µM | NCI-H226 > 100 µM | OVCAR-4 > 100 µM | OVCAR-8 > 100 µM | RPMI-8226 > 100 µM | SF-539 > 100 µM | SK-MEL-2 > 100 µM | SK-MEL-5 > 100 µM | SN12C > 100 µM | SNB-19 > 100 µM | TK-10 > 100 µM | UACC-257 > 100 µM
